Assay results reported in publication PMC7322544, “Combining an in silico proarrhythmic risk assay with a tPKPD model to predict QTc interval prolongation in the anesthetized guinea pig assay” (Toxicology and Applied Pharmacology, 2020).

System: QTc interval
Test: Anesthetized cardiovascular guinea pig (CVGP) assay
Format: in vivo
Description: Briefly, male Hartley guinea pigs (BW: 350–500 g) were anesthetized with a bolus mixture of ketamine/xylazine (85/5 mg kg^− 1, IM) then an intravenous (iv) infusion of ketamine/xylazine (40/0.5 mg kg^− 1 h^− 1, to effect). The jugular vein and left carotid arteries were cannulated for test article administration and arterial blood pressure (BP) monitoring and blood collection, respectively. The body surface electrocardiogram (ECG) was measured via subcutaneous needle electrodes to record modified lead-II ECG. After surgery, anesthetized GPs were stabilized for a minimum of 10 min before beginning baseline data collection. Solutions of 3 varying test-article concentrations suitable for administering selected doses were prepared in appropriate vehicles. Vehicle alone or test-article solutions were administered i.v. with each dose level infused over a 20-min period. Each test article and vehicle were evaluated in ≥ n = 3 male anesthetized GPs. Blood sampling for pharmacokinetic analysis was taken at 10 and 19 min of each dose level.

COc1c(N2C[C@@H]3CCCN[C@@H]3C2)c(F)cc2c(=O)c(C(=O)O)cn(C3CC3)c12 [NCE 7, moxifloxacin]
CVGP QTc EC5 (anesthetized guinea pig, free plasma concentration causing 5% increase in QTc interval, > = highest free plasma concentration tested without QTc prolongation): 12 µM
CVGP QTc EC5 (free plasma concentration): 15 µM
Guinea pig QTc EC5 (free plasma concentration giving 5% QTc increase, > = above highest free plasma concentration tested, no QTc prolongation, i.v. infusion): 15 µM
